Read-outs that look alike come from different tables or passages of the source. Each block holds one compound with its values, some of them ahead of it.
Columns and labels:
[1] = tested on: K1 chloroquine and pyrimethamine-resistant P. falciparum strain; test: In vitro antiplasmodial evaluation (SYBR Green I); format: cell-based, Plasmodium falciparum; conditions: K1 strain, 72 h incubation, three independent experiments, read-out: EC50 PfK1 (µM) ± SD
Method: For all molecules, the selectivity index was calculated as following SI = CC50/EC50.
It was maintained in continuous culture, as described previously by Trager and Jensen. Cultures were maintained in fresh A+ human erythrocytes at 2.5% hematocrit in complete medium (RPMI 1640 with 25 mM HEPES, 25 mM NaHCO3, 10% of A+ human serum) at 37 °C under reduced O2 atmosphere (gas mixture 10% O2, 5% CO2, and 85% N2). Parasitemia was maintained daily between 1 and 3%. The P. falciparum drug susceptibility test was carried out by comparing quantities of DNA in treated and control cultures of parasite in human erythrocytes according to an SYBR Green I fluorescence-based method using a 96-well fluorescence plate reader. Compounds, previously dissolved in DMSO (final concentration less than 0.5% v/v), were incubated in a total assay volume of 200 μL (RPMI, 2% hematocrit and 0.4% parasitemia) for 72 h in a humidified atmosphere (10% O2 and 5% CO2) at 37 °C, in 96-well flat bottom plates. Duplicate assays were performed for each sample. After incubation, plates were frozen at […] for 24 h. Then, the frozen plates were thawed for 1 h at 37 °C. Fifteen µL of each sample were transferred to 96-well flat bottom non-sterile black plates (Greiner Bio-one, Kremsmünster, Austria), already containing 15 µL of the SYBR Green I lysis buffer (2X SYBR Green I, 20 mM Tris base pH 7.5, 20 mM EDTA, 0.008% w/v saponin, 0.08% w/v Triton X-100). […] Plates were incubated for 15 min at 37 °C and then read on a TECAN Infinite F-200 spectrophotometer with excitation and emission wavelengths at 485 and 535 nm, respectively.

[2] = tested on: Plasmodium falciparum blood stage parasites; test: Growth assay over three life cycles (delayed death); format: cell-based; conditions: 0.2 µM; 48, 96, 144 h
Method: (§1) To determine the impact of (3i) on apicoplast biogenesis, parasites were treated for 48 h with 0.2 µM of (3i) or 0.2 µM of (2i) (a control of (3i) for which the active CCl3 was replaced by a methyl CH3 group) and compared to untreated parasites by immunofluorescence assay. […] In order to determine if the apicoplast is the main target of (3i), we performed a growth assay over three life cycles to assess a potential delayed death effect, one of the major signature for compounds affecting apicoplast. […] The second interpretation could be that, unlike chloramphenicol or doxycycline, which cause a delayed death phenotype on Plasmodium, (3i) could act like fosmidomycin or actinonin and cause a rapid death phenotype.
To observe a potential effect of delayed death of the molecule on the parasite, Plasmodium was maintained on three life cycles (48 h). […] Fluorescence from each well was measured with TECAN infinite M200 plate reader (excitation: 485 nm, emission: 538 nm and integration time: 1000 μs). […] A graph was obtained by performing the ration of the treated culture fluorescence intensity on the untreated culture fluorescence intensity (n = 3).

P. falciparum apicoplast = test: Immunofluorescence assay of apicoplast biogenesis on treated blood-stage parasites; format: cell-based, Plasmodium falciparum; conditions: 48 h, 0.2 µM
Method: as §1
Plasmodium falciparum blood stage parasites were maintained at 2% hematocrit in 1640 RPMI-HEPES, supplemented with 5% AlbuMAX II (GIBCO) and 0.25% gentamycin. Parasites were grown sealed Perspex chambers gassed with beta mix gas (1% O2, 5% CO2 and 94% N2) at 37 °C and maintained on 48-h cycles. Cultures were tightly synchronized at ring stage using sorbitol treatment (5% v/v) as previously described.
Prior to the treatment, parasites were synchronized using 5% sorbitol. After 48 h treatment ([…] or DMSO) parasites were fixed using 4% paraformaldehyde (PFA) and 0.0075% glutaraldehyde for 30 min at room temperature. […]

[3] = tested on: P. falciparum (NF135 strain) hepatic exoerythrocytic forms; test: Liver stage development in infected primary human hepatocytes; format: cell-based, Plasmodium falciparum; conditions: 3i 0.9-30 µM, ATQ 25 nM; 6 or 12 days post-infection
Method: The effect of (3i) on the hepatic stage of P. falciparum was next studied in order to know if (3i) was active against another stage of P. falciparum cycle. Cryopreserved primary human hepatocytes were infected with 30,000 freshly extracted P. falciparum sporozoites and simultaneously treated with a dose range (0.9–30 µM) of (3i). Atovaquone (ATQ) was used as a positive parasite-killing control at 25 nM.
P. falciparum (NF135 strain) sporozoites were isolated by dissection of the salivary glands of infected A. stephensi 14–21 days after an infective blood meal (Department of medical microbiology, University Medical Centre, St Radboud, Nijmegen Netherland). All infected salivary glands were removed by hand dissection, crushed in a potter for sporozoites isolation, and filtrated through a 40 μm filter to remove mosquito debris (Cell Strainer, BD BioSciences, Franklin Lakes, NJ, USA). The sporozoites were counted using a disposable Glasstic microscope slide (KOVA, Garden Grove, CA, USA).
One day before hepatocyte thawing, 96-well plates were coated by a Corning®® collagen solution (50 µg/mL rat tail type I collagen in 0.02N acid acetic) over night at room temperature. The next day, the wells were washed twice by PBS solution. Cryopreserved primary human hepatocytes (LONZA, Basel, Swiss) were seeded in 96-well plates with a pre-determined seeding dose that gave a single dense layer of attached hepatocytes. Four days post-seeding, each plate well was infected with 30,000 freshly extracted Plasmodium falciparum sporozoites. […]
Hepatocyte cultures were fixed with 4% paraformaldehyde solution (PFA, Invitrogen) for 10 min. […] Images were analyzed and prepared with ImageJ software. Apicoplast morphology was observed and quantified by eye under a confocal microscope.
Upon immunostaining of parasites, the study plates were scanned using a CellInsight high-content screening platform equipped with the Studio HCS software (Thermo Fisher Scientific, Waltham, MA, USA). […] The number of host hepatocyte nuclei per well was counted by the system as a measure of toxicity of 3i towards the liver cells. […]

[4] = tested on: Pf3D7 (3D7 chloroquine-sensitive strain); conditions: Figure 2; cited from earlier work
HepG2 = conditions: Figure 2; cited from earlier work

EC50 [1]: > 16 µM
EC50 ([1]; Plasmodium falciparum, K1, 72 h): > 25 µM
Structure (SMILES): Cc1nc2ccccc2nc1Oc1ccc([N+](=O)[O-])cc1 [2i, 2-Methyl-3-(4-nitrophenoxy)quinoxaline]
Parasite growth over three life cycles (ratio treated/untreated) [2]: absence of effect
Effect on apicoplast biogenesis (immunofluorescence) (P. falciparum apicoplast): absence of effect

Structure (SMILES): O=C1C(O)=C([C@H]2CC[C@H](c3ccc(Cl)cc3)CC2)C(=O)c2ccccc21 [ATQ, Atovaquone, reference compound]
Effect on exoerythrocytic forms (EEF or schizont) size and numbers [3]: completely clear all parasites from the culture

Structure (SMILES): Brc1ccc(Nc2nc3ccccc3nc2Nc2ccc(Br)cc2)cc1 [MMV007224]
EC50 [4]: 1.06 µM
CC50 (HepG2): 5.1 µM

Source: article PMC8400257, “2-Phenoxy-3-Trichloromethylquinoxalines Are Antiplasmodial Derivatives with Activity against the Apicoplast of Plasmodium falciparum” (Pharmaceuticals, 2021)
